Assay results published in patent US5284856A, “Oncogene-encoded kinases inhibition using 4-H-1-benzopyran-4-one derivatives” (Hoechst Aktiengesellschaft, priority 1988, dated 1994).
Where a name gives a salt, the structure may show the parent alone.

Each compound was assayed on T1, cAMP-dependent protein kinase (assay: 3',5'-cAMP-dependent protein kinase inhibition (catalytic sub-unit, kemptide substrate)). Conditions: 45 μg/ml inhibitor, 40 μM ATP, 15 minutes at 30° C., pH 6.9; hydrochloride.
T1 construct: purchased Sigma Chemical Co., St. Louis, Mo., USA
Assay type: biochemical
Method: Assay for 3', 5'-cAMP-Dependent Protein Kinase Inhibition
The catalytic sub-unit of cAMP-dependent protein kinase (Sigma) was reconstituted as described by Sigma (Sigma Chemical Co., St. Louis, Mo., USA). The enzyme activity was measured with kemptide (Sigma) (Leu-Arg-Arg-Ala-Ser-Leu-Gly) as the substrate. The inhibitor was preincubated with the enzyme, substrate (190 μM), Mg^2+ (5 mM), 0.25 mg/ml of BSA and 3.75 mM of mercaptoethanol in 50 mM of MOPA (4-morpholinopropanesulfonic acid), pH 6.9. The reaction was initiated by adding γ-^32 P ATP (40 μM). After 15 minutes at 30° C., an aliquot amount was transferred to p81 ion exchange paper (2×2 cm; Whatman Paper Ltd., Great Britain), the paper was immersed in 75 mM H3 PO4, washed and dried, and the incorporation of ^32 P was determined by means of a liquid scintillation counter.

Structure (SMILES)	% inhibition of cAMP-dependent protein kinase at an inhibitor concentration of 45 μg/ml [%]
CN1CC[C@H](c2c(O)cc(O)c3c(=O)cc(-c4ccccc4)oc23)[C@H](O)C1 (single isomer, unassigned) [phenyl HCl (-), (-)-cis-5,7-dihydroxy-2-phenyl-8-[4-(3-hydroxy-1-methyl)piperidinyl]-4H-1-benzopyran-4-one hydrochloride]	46
CN1CC[C@H](c2c(O)cc(O)c3c(=O)cc(-c4ccccc4)oc23)[C@H](O)C1 (single isomer, unassigned) [phenyl HCl (+), (+)-cis-5,7-dihydroxy-2-phenyl-8-[4-(3-hydroxy-1-methyl)piperidinyl]-4H-1-benzopyran-4-one hydrochloride]	13

Same assay, conditions: pH 6.9, 45 μg/ml inhibitor, 40 μM ATP, 15 minutes at 30° C., read-out: % inhibition of cAMP-dependent protein kinase at an inhibitor concentration of 45 μg/ml

Structure (SMILES)	inhibition at 45 µg/mL [%]
CCCc1cc(=O)c2c(O)cc(O)c(C3CCN(C)CC3O)c2o1 (single isomer, unassigned) [n-propyl HCl (-)]	5
CN1CC[C@H](c2c(O)cc(O)c3c(=O)cc(-c4ccc5ccccc5c4)oc23)[C@H](O)C1 (relative stereo) [2-naphthyl HCl (±), (±)-cis-5,7-dihydroxy-2-(2-naphthyl)-8-[4-(3-hydroxy-1-methyl)piperidinyl]-4H-1-benzopyran-4-one hydrochloride]	0
CN1CC[C@H](c2c(O)cc(O)c3c(=O)cc(-c4cccs4)oc23)[C@H](O)C1 (relative stereo) [2-thiophenyl (±), (±)-cis-5,7-dihydroxy-2-(2-thienyl)-8-[4-(3-hydroxy-1-methyl)piperidinyl]-4H-1-benzopyran-4-one]	14
CN1CCC(c2c(O)cc(O)c3c(=O)cc(-c4ccccc4F)oc23)C(O)C1 (racemic) [2-fluorophenyl HCl (±)]	0
CN1CCC(c2c(O)cc(O)c3c(=O)cc(-c4ccc(Br)cc4)oc23)C(O)C1 (racemic) [4-bromophenyl HCl (±)]	65
CN1CC[C@H](c2c(O)cc(O)c3c(=O)cc(-c4ccccc4)oc23)[C@H](O)C1 (relative stereo) [phenyl HCl (±), (±)-cis-5,7-dihydroxy-2-phenyl-8-[4-(3-hydroxy-1-methyl)piperidinyl]-4H-1-benzopyran-4-one hydrochloride]	48
CN1CC[C@H](c2c(O)cc(O)c3c(=O)cc(-c4ccccc4Cl)oc23)[C@H](O)C1 (relative stereo) [2-chlorophenyl HCl (±), (±)-cis-5,7-dihydroxy-2-(2-chlorophenyl)-8-[4-(3-hydroxy-1-methyl)piperidinyl]-4H-1-benzopyran-4-one hydrochloride]	29
CCc1cc(=O)c2c(O)cc(O)c(C3CCN(C)CC3O)c2o1 (racemic) [ethyl HCl (±)]	0
CCCc1cc(=O)c2c(O)cc(O)c(C3CCN(C)CC3O)c2o1 (racemic) [n-propyl HCl (±)]	0
CN1CC[C@H](c2c(O)cc(O)c3c(=O)cc(-c4ccccn4)oc23)[C@H](O)C1 (single isomer, unassigned) [2-pyridyl HCl (-), (-)-cis-5,7-dihydroxy-2-(2-pyridyl)-8-[4-(3-hydroxy-1-methyl)piperidinyl]-4H-1-benzopyran-4-one hydrochloride]	6
CN1CC[C@H](c2c(O)cc(O)c3c(=O)cc(-c4cccnc4)oc23)[C@H](O)C1 (relative stereo) [3-pyridyl HCl (±), (±)-cis-5,7-dihydroxy-2-(3-pyridyl)-8-[4-(3-hydroxy-1-methyl)piperidinyl]-4H-1-benzopyran-4-one hydrochloride]	0
CN1CCC(c2c(O)cc(O)c3c(=O)cc(-c4ccc(-c5ccccc5)cc4)oc23)C(O)C1 (racemic) [4-biphenyl HCl (±)]	37
CN1CCC(c2c(O)cc(O)c3c(=O)cc(Cc4ccccc4Cl)oc23)C(O)C1 (racemic) [(2-chlorophenyl)methyl HCl (±)]	69
CN1CC[C@H](c2c(O)cc(O)c3c(=O)cc(-c4ccccc4Cl)oc23)[C@H](O)C1 (single isomer, unassigned) [2-chlorophenyl HCl (+), (+)-cis-5,7-dihydroxy-2-(2-chlorophenyl)-8-[4-(3-hydroxy-1-methyl)piperidinyl]-4H-1-benzopyran-4-one hydrochloride]	27
CN1CCC(c2c(O)cc(O)c3c(=O)cc(-c4ccc(F)cc4)oc23)C(O)C1 (racemic) [4-fluorophenyl HCl (±)]	25
CN1CC[C@H](c2c(O)cc(O)c3c(=O)cc(-c4ccccn4)oc23)[C@H](O)C1 (relative stereo) [2-pyridyl HCl (±), (±)-cis-5,7-dihydroxy-2-(2-pyridyl)-8-[4-(3-hydroxy-1-methyl)piperidinyl]-4H-1-benzopyran-4-one hydrochloride]	0
CN1CCC(c2c(O)cc(O)c3c(=O)cc(-c4ccc(Cl)cc4)oc23)C(O)C1 (racemic) [4-chlorophenyl HCl (±)]	37
CN1CC[C@H](c2c(O)cc(O)c3c(=O)cc(-c4ccncc4)oc23)[C@H](O)C1 (relative stereo) [4-pyridyl HCl (±), (±)-cis-5,7-dihydroxy-2-(4-pyridyl)-8-[4-(3-hydroxy-1-methyl)piperidinyl]-4H-1-benzopyran-4-one hydrochloride]	12
CN1CCC(c2c(O)cc(O)c3c(=O)cc(-c4ccccc4Br)oc23)C(O)C1 (racemic) [2-bromophenyl (±)]	63
Cc1ccc(-c2cc(=O)c3c(O)cc(O)c([C@H]4CCN(C)C[C@H]4O)c3o2)cc1 (relative stereo) [4-methylphenyl HCl (±), (±)-cis-5,7-dihydroxy-2-(4-methylphenyl)-8-[4-(3-hydroxy-1-methyl)piperidinyl]-4H-1-benzopyran-4-one hydrochloride]	55

What follows are compounds tested on A 549 (assay: SRC Tumor Test (implantation under renal capsule of nude mouse), bronchogenic carcinoma A 549). Conditions: A 549, 35 mg/kg/day i.v., days 2-15.
Assay type: in vivo
Method: (§1) Single cell suspensions (from cell culture A 549 or disaggregated human tumor xenografts LXF 529) in Beriplast (Behringwerke AG) were diluted 1:2 with RPMI 1640 supplemented with 15% FCS to a final cell concentration of 10^7 cells/50 μl. This suspension was sucked quickly into 50 μglass capillaries (diameter 1.5 mm), of which the inner walls had been moistered with a thrombin/CaCl2 solution (500 units thrombin in 1 ml 40 mmol CaCl2).
(§2) After solidification of the cell-fibrin mixture (about 5 min at RT) the fibrin clot has been removed from the glass capillary into a petridish by air pressure. The fibrin clot was cut into 2 mm pieces (≈5×10^5 cells per piece) and the pieces were stored in RPMI 1640 supplemented with 15% FCS until implantation.
(§3) A single fibrin piece was transferred under the renal capsule of a nude mouse and, subsequently, two perpendicular diameters of the implanted piece were measured by microscope with an ocular micrometer (day 0). The tumor size was calculated according to
b=diameter perpendicular to a […]
(§4) On day 21 after implantation the animals were sacrificed, the kidney was exteriorized and the tumor size was measured again. The effectivity of the test drug was calculated from the tumor growth inhibition.
The relative tumor size VR was calculated according the formula [formula] […]

Structure (SMILES)	T/C [%]
CN1CC[C@H](c2c(O)cc(O)c3c(=O)cc(-c4cccc(Br)c4)oc23)[C@H](O)C1 (relative stereo) [Exmp. 17, (±)-cis-5,7-Dihydroxy-2-(3-bromophenyl)-8-[4-(3-hydroxy-1-methyl)piperidinyl]-4H-1-benzopyran-4-one hydrochloride]	70

Same assay, conditions: A 549, 100 mg/kg/day p.o., days 2-15

Structure (SMILES)	T/C [%]
CN1CC[C@H](c2c(O)cc(O)c3c(=O)cc(-c4cccc(Br)c4)oc23)[C@H](O)C1 (relative stereo) [Exmp. 17, (±)-cis-5,7-Dihydroxy-2-(3-bromophenyl)-8-[4-(3-hydroxy-1-methyl)piperidinyl]-4H-1-benzopyran-4-one hydrochloride]	73

What follows are compounds tested on LXF 529 (assay: SRC Tumor Test (implantation under renal capsule of nude mouse), bronchogenic carcinoma LXF 529). Conditions: LXF 529, 2 mg/kg/day i.v., days 2-15.
Assay type: in vivo, human tumor xenograft in nude mouse
Method: as §1, §2, §3
b=diameter perpendicular to a
The substance was given i.v. or p.o. daily on day 2-15 with the maximal tolerable dose (MTD) and a dose 2/3 of the MTD value according to the pretests. 5 mice/group were used.
as §4
The relative tumor size VR was calculated according the formula [formula] Vt =tumor size at the end of experiment (day 21) V0 =tumor size as day of implantation
Subsequently the median relative tumor size of the treated group (VT) was related to the corresponding median relative tumor size of controls (VC) according to the formula [formula] The statistical significance (p 0.05) of the antitumoral effects was calculated using the Wilcoxon U test.

Structure (SMILES)	T/C [%]
CN1CC[C@H](c2c(O)cc(O)c3c(=O)cc(-c4ccccc4Cl)oc23)[C@H](O)C1 (single isomer, unassigned) [Exmp. 9, (-)-cis-5,7-Dihydroxy-2-(2-chlorophenyl)-8-[4-(3-hydroxy-1-methyl)piperidinyl]-4H-1-benzopyran-4-one hydrochloride]	59

Same assay, conditions: LXF 529, 4 mg/kg/day i.v., days 2-15

Structure (SMILES)	T/C [%]
CN1CC[C@H](c2c(O)cc(O)c3c(=O)cc(-c4ccccc4Cl)oc23)[C@H](O)C1 (single isomer, unassigned) [Exmp. 9, (-)-cis-5,7-Dihydroxy-2-(2-chlorophenyl)-8-[4-(3-hydroxy-1-methyl)piperidinyl]-4H-1-benzopyran-4-one hydrochloride]	51

Same assay, conditions: LXF 529, 25 mg/kg/day i.v., days 2-15; n.s. = not significant (P > 0.05)

Structure (SMILES)	T/C [%]
CN1CC[C@H](c2c(O)cc(O)c3c(=O)cc(-c4cccc(Br)c4)oc23)[C@H](O)C1 (relative stereo) [Exmp. 17, (±)-cis-5,7-Dihydroxy-2-(3-bromophenyl)-8-[4-(3-hydroxy-1-methyl)piperidinyl]-4H-1-benzopyran-4-one hydrochloride]	81

Same assay, conditions: LXF 529, 35 mg/kg/day i.v., days 2-15

Structure (SMILES)	T/C [%]
CN1CC[C@H](c2c(O)cc(O)c3c(=O)cc(-c4cccc(Br)c4)oc23)[C@H](O)C1 (relative stereo) [Exmp. 17, (±)-cis-5,7-Dihydroxy-2-(3-bromophenyl)-8-[4-(3-hydroxy-1-methyl)piperidinyl]-4H-1-benzopyran-4-one hydrochloride]	67

Same assay, conditions: LXF 529, 100 mg/kg/day i.v., days 2-15; n.s. = not significant (P > 0.05)

Structure (SMILES)	T/C [%]
CN1CC[C@H](c2c(O)cc(O)c3c(=O)cc(-c4ccc(O)cc4)oc23)[C@H](O)C1 (relative stereo) [Exmp. 19, (±)-cis-5,7-Dihydroxy-2-(4-hydroxyphenyl)-8-[4-(3-hydroxy-1-methyl)piperidinyl]-4H-1-benzopyran-4-one]	98

Same assay, conditions: LXF 529, 150 mg/kg/day i.v., days 2-15

Structure (SMILES)	T/C [%]
CN1CC[C@H](c2c(O)cc(O)c3c(=O)cc(-c4ccc(O)cc4)oc23)[C@H](O)C1 (relative stereo) [Exmp. 19, (±)-cis-5,7-Dihydroxy-2-(4-hydroxyphenyl)-8-[4-(3-hydroxy-1-methyl)piperidinyl]-4H-1-benzopyran-4-one]	80
